# Measured values as given in patent publication US20180231561A1, “METHODS FOR TREATING SOLID TUMORS AND THE USE OF BIOMARKERS AS A PREDICTOR OF CLINICAL SENSITIVITY TO IMMUNOMODULATORY THERAPIES” (CELGENE CORPORATION, priority 2015, published 2018).
# Entries after “also recorded” stand apart in the source; their conditions may differ. Where a SMILES comes first, the peptide text is derived from it. The star is where a group is joined. Cbz = O=C(OCc1ccccc1)*
# Tests used:
# [1] = tested on: ZFP91; assay: Western blot of ZFP91 protein level in HCC cell lines Focus and JHH4; format: cell-based; settings: for effect on Compound A-induced ZFP91 degradation: Focus and JHH4, 2D, 10 μM for 1 hour, then 5 μM Compound A for 6 hours
# Experimental: (§1) Both HCC cells, Focus and JHH4 in 3D setting, were cultured continuously for 15 days treated with either DMSO or Compound A, or were first cultured for about 7 days prior to treatment with either DMSO or Compound A for 24 hours or 72 hours. Cells were harvested and proteins were prepared from the cells for proteomics analysis. The growth of the cells on control plates was also analyzed. In particular, cells were plated in media containing either DMSO or Compound A. Cells were cultured for certain time, and then were harvested onto filter plates. After the plates have dried, scintillation fluid was added to the plates and read on a Top-count reader.
# Focus cells were cultured for 18 days either continuously for 18 days in the medium containing DMSO, Compound A, or Compound B, or cultured for 7 days prior to treating with DMSO, Compound A, or Compound B for 11 days. Then cells were harvested and were treated in 200 μl cold cell lysis buffer (1% Triton X-100 from Cell Signaling supplemented with protease inhibitors and phophatase inhibitors from Roche) to generate cell lysate. Proteins from cell lysate were separated by 4-12% nupage gels (Invitrogen) and transferred to nitrocellulose membranes. Immunoblots were then probed with antibodies recognizing CRBN, ZFP91 (LSBio) and β-actin (Li-Cor). Signals were detected with a Li-Cor Odyssey Imager. As shown, the level of ZFP91 reduced in response to treatment with Compound A or Compound B.
# (§2) HCC cells from both Focus and JHH4 cell lines in 2D setting treated with Compound A for 6 hours, 24 hours, and 72 hours, and JHH4 cells in 3D setting treated with Compound A for 15 days were also analyzed by western blot. Cells were harvested and were treated in 200 μl cold cell lysis buffer (1% Triton X-100 from Cell Signaling supplemented with protease inhibitors and phophatase inhibitors from Roche) to generate cell lysate. Proteins from cell lysate were separated by 4-12% Nupage gels (Invitrogen) and transferred to nitrocellulose membranes. Immunoblots were then probed with antibodies recognizing CRBN, ZFP91 (LSBio), P-TBK1, and β-actin (Li-Cor). Signals were detected with a Li-Cor Odyssey Imager. As shown, the level of ZFP91 reduced in response to treatment with Compound A for 6 hours, 24 hours, or 72 hours in both cell lines in 2D setting. […] The level of CRBN increased in response to treatment with Compound A for 6 hours, 24 hours, or 72 hours in both cell lines in 2D setting. […] ZFP91 degradation induced by various doses of Compound A for various time periods was also tested in both Focus and JHH4 cells, as shown in FIG. 4C.
# HCC cells from both Focus and JHH4 cell lines in 2D setting were first treated with 10 μM MG132 or MLN4924 for 1 hour, and then were treated with 5 μM DMSO or 5 μM Compound A for 6 hours. Cells were harvested and were treated in cell lysis buffer to generate cell lysate. Proteins from cell lysate were separated by gel electrophoresis and transferred to nitrocellulose membranes. Immunoblots were then probed with antibodies recognizing CRBN, ZFP91 (LSBio), and β-actin (Li-Cor). The results were shown in FIG. 5A, and as shown, both […] or MLN4924 inhibited ZFP91 degradation. MG132 activates c-Jun N-terminal kinase (JNK1), which initiates apoptosis. […] MLN4924 is a NAE1 inhibitor that blocks the activity of Cullin Ring Ligases (CRLs), such as CRL4CRBN.
# [2] = tested on: ZFP91; assay: Western blot of ZFP91 level in glioblastoma cell lines U87 and SNB19; format: cell-based, human; settings: U87 and SNB19 cells
# Experimental: The change of ZFP91 level in response to treatment compounds was evaluated in other solid tumor cell lines, e.g., glioblastoma (GBM) cell lines. […] Proteins from cell lysate were separated by electrophoresis gel and transferred to nitrocellulose membranes. Immunoblots were then probed with antibodies recognizing ZFP91 and β-actin. Signals were detected with a Li-Cor Odyssey Imager.
# [3] = tested on: ZFP91; assay: Western blot of ZFP91 level in Hep3B cells; format: cell-based, human
# Experimental: The change of ZFP91 level in response to Compound A or Compound B treatments was also evaluated in human hepatoma Hep3B cell lines. Hep3B cells were treated with Compound A or Compound B, and cells were harvested and treated in lysis buffer to generate cell lysate. Proteins from cell lysate were separated by electrophoresis gel and transferred to nitrocellulose membranes. Immunoblots were then probed with antibodies recognizing CRBN, ZFP91, and β-actin. Signals were detected with a Li-Cor Odyssey Imager. The results were shown in the upper panel of FIG. 6A. […] Thus, ZFP91 may be degraded in response treatment compounds regardless of growth response of the cells to the treatment compounds.
# [4] = tested on: NF-κB; settings: read-out: IC50 NF-κB activation; cited from earlier work
# [5] = molecular target: CRBN (Homo sapiens, UniProt Q96SW2); settings: in vitro; cited from earlier work
# [6] = tested on: JHH4 cells; assay: Colony growth on control plates, 3D JHH4 cells; format: cell-based; settings: 3D JHH4, control plates, vs DMSO
# [7] = tested on: ZFP91; assay: Immunostaining of ZFP91 in U87 xenograft tissue; format: in vivo
# [8] = tested on: FOCUS cell line; assay: Proteomic screening in FOCUS cell line under 3D culture; format: cell-based; settings: 3D conditions
# Experimental: as §1
# [9] = tested on: JHH4 cell line; assay: Proteomic screening in JHH4 cell line under 3D culture; format: cell-based
# Experimental: as §1
# [10] = tested on: CRBN; assay: Western blot of CRBN protein level in HCC cell lines Focus and JHH4; format: cell-based
# Experimental: as §2, with “Both HCC cells, Focus and JHH4 in 3D setting, were cultured continuously for 15 days treated with either DMSO or Compound A, or were first cultured for about 7 days prior to treatment with either DMSO or Compound A for 24 hours or 72 hours. Cells were harvested and proteins were prepared from the cells for proteomics analysis. The growth of the cells on control plates was also analyzed. In particular, cells were plated in media containing either DMSO or Compound A. Cells were cultured for certain time, and then were harvested onto filter plates. After the plates have dried, scintillation fluid was added to the plates and read on a Top-count reader. HCC” for “HCC”
# [11] = tested on: P-TBK1; assay: Western blot of P-TBK1 in HCC cells; format: cell-based; settings: 3D setting
# Experimental: as §2
# [12] = tested on: Focus cells; assay: Colony growth on control plates, 3D Focus cells; format: cell-based; settings: vs DMSO
# [13] = tested on: Hep3B cells; assay: Growth response of Hep3B cells to treatment compounds (FIG. 6B); format: cell-based, human
# [14] = tested on: U87 tumor; assay: U87 xenograft tumor growth; format: in vivo; settings: 3 and 30 mg/kg qd
# [15] = tested on: ZFP91; assay: Western blot of ZFP91 protein level in HCC cell lines Focus and JHH4; format: cell-based; settings: for effect of the compound on ZFP91 after knocking down of CRBN: CRBN knockdown, Focus and JHH4 cells
# [16] = tested on: HCC xenografts (excised xenograft tumors of HAK-1AJ and Focus); assay: Proteomic screening (TMT) of HCC xenografts treated with DMSO or Compound A; format: cell-based
# Experimental: HCC xenografts (excised xenograft tumors of HAK-1AJ and Focus) were treated with either with DMSO, or Compound A for either once (single) or multiple times. Cells were harvested at 24 or 72 hours time points, and proteins were fractionated using a basic pH reverse gradient method. Fractionated samples were labeled using a Tandem Mass Tag (TMT) method. Relative abundance was calculated.
# [17] = tested on: MST1R (RON), PARP4, MVP, ZFP91, IKBKE, PDE6D, CK1alpha, LGALS2, KAT1, GSPT1, CRBN; assay: Western blot confirmation of proteins identified in the proteomic studies (FIG. 8); format: cell-based
# Source text: Representative proteins identified in the proteomic studies were confirmed in western blot analysis, such as those shown in FIG. 8.
# [18] = Focus and JHH4, 2D setting, 6 hours, 24 hours or 72 hours
# [19] = Focus and JHH4, 3D, control plate and proteomic preparation, beta-actin control
# [20] = Focus cells, 18 days continuous, or 7 days culture then 11 days treatment
# Chain of CRBN (Homo sapiens, UniProt Q96SW2) (Q96SW2 whole entry, species assumed): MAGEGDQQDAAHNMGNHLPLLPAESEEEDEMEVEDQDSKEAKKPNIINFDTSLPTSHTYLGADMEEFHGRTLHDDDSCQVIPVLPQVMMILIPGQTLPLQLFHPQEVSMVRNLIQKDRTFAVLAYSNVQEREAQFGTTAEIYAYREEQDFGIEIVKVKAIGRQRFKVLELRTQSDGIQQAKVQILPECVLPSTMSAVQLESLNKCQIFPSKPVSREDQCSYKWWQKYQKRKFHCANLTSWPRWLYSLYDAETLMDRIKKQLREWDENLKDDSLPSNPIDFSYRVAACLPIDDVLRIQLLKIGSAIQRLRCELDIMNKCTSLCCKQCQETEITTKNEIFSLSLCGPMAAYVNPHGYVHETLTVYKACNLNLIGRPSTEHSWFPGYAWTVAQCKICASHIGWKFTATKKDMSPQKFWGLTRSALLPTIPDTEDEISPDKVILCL
# Chain of CRBN (Homo sapiens, UniProt Q96SW2) (Q16531 whole entry partner, species assumed): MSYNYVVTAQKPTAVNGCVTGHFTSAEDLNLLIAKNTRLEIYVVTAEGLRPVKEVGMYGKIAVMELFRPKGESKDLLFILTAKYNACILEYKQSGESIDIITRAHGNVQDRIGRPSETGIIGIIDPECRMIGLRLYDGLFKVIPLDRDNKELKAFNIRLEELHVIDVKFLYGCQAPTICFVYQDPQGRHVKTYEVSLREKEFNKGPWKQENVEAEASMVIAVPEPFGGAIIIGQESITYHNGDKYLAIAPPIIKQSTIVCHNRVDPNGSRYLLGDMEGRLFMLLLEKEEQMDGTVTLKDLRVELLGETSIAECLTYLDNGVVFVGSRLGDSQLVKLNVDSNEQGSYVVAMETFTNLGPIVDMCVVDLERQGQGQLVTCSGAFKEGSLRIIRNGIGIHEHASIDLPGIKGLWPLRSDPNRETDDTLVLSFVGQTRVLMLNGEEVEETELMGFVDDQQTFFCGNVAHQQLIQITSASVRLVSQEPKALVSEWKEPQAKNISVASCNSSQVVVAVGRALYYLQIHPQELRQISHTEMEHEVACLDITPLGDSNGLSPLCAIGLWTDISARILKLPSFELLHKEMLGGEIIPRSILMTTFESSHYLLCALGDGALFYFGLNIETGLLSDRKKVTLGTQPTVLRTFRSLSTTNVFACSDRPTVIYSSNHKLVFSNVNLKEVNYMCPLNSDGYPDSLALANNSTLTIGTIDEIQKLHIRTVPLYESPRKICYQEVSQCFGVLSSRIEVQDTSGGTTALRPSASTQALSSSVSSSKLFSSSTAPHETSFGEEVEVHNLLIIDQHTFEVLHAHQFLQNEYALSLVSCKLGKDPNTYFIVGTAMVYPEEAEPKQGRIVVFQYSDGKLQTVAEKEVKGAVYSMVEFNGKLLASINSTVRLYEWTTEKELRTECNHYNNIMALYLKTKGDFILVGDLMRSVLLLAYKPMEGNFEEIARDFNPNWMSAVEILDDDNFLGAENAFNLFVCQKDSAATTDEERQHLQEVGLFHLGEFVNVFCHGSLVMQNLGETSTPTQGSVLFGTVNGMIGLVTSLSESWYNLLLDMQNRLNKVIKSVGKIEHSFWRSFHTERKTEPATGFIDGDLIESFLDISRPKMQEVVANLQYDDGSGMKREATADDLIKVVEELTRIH
# Chain of CRBN (Homo sapiens, UniProt Q96SW2) (Q13619 whole entry partner, species assumed): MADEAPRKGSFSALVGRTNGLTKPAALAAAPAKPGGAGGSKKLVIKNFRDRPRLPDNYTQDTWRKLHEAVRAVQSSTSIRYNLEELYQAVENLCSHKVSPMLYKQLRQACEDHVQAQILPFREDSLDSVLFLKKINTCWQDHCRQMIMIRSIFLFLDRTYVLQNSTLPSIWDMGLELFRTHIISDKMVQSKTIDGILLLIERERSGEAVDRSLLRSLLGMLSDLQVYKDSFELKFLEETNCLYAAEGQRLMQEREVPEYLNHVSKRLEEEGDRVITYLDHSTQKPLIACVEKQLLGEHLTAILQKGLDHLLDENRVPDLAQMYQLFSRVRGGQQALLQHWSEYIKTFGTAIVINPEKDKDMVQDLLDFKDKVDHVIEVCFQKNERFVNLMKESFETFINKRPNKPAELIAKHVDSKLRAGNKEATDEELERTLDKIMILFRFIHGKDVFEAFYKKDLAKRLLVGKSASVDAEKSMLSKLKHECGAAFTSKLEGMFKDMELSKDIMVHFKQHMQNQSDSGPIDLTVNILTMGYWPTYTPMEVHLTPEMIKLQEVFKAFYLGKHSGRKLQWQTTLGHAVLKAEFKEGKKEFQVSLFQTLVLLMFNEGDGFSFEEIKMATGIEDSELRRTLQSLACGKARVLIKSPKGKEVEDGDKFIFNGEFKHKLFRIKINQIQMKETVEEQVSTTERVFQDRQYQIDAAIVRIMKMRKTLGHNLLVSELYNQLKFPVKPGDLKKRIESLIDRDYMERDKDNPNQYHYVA
# Chain of CRBN (Homo sapiens, UniProt Q96SW2) (P62877 whole entry partner, species assumed): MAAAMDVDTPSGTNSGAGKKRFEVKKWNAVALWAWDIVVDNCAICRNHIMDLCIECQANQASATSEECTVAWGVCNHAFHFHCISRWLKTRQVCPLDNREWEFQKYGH
smiles,measurement,setting,value
"NS(=O)(=O)OC[C@@H]1C[C@@H](n2ccc3c(N[C@H]4CCc5ccccc54)ncnc32)C[C@@H]1O [MLN4924, reference compound]",effect on Compound A-induced ZFP91 degradation,[1],inhibited
same,effect on Compound A-induced ZFP91 degradation,[1]; listed as MLN,block
same,effect on reduction of ZFP91 by treatment compounds,[2],blocked
same,effect on reduction of ZFP91 by Compound A or Compound B,[3],blocked
"CC(C)C[C@@H](C=O)NC(=O)[C@H](CC(C)C)NC(=O)[C@H](CC(C)C)NC(=O)OCc1ccccc1 [MG132, reference compound] (Cbz-Leu-Leu-Leu-aldehyde)",effect on Compound A-induced ZFP91 degradation,[1],inhibited; also recorded: block
same,IC50,[4],3000 nM
same,effect on reduction of ZFP91 by treatment compounds,[2],blocked
same,effect on reduction of ZFP91 by Compound A or Compound B,[3],blocked
"O=C1CCC(N2C(=O)c3ccccc3C2=O)C(=O)N1 (centres unmarked) [thalidomide, 2-(2,6-dioxopiperidin-3-yl)-1H-isoindole-1,3(2H)-dione]",auto-ubiquitination of CRBN,[5],inhibit
"Cc1nc2cccc(N)c2c(=O)n1C1CCC(=O)NC1=O (centres unmarked) [Compound A, 3-(5-amino-2-methyl-4-oxo-4H-quinazolin-3-yl)-piperidine-2,6-dione]",colony number,[6],reduced
same,total colony area,[6],reduced
same,level of ZFP91,[1]; [18],reduces
same,level of ZFP91 protein,[1]; [19],reduced
same,level of ZFP91,[1]; [20],reduces
same,level of ZFP91,"[1]; JHH4, 3D setting, 15 days",reduced
same,ZFP91 in U87 xenograft tissue,[7],degrades
same,regulation of the proteins listed in Table 4,[8],upregulated
same,regulation of the proteins listed in Table 6,[8],downregulated
same,regulation of the proteins listed in Table 5,"[9]; JHH4, 3D conditions",downregulated
same,regulation of the proteins listed in Table 3,"[9]; JHH4, 3D culture, basement membrane extracellular matrix",upregulated
same,level of CRBN,[10]; [18],increases
same,level of CRBN protein,[10]; [19],increased
same,level of CRBN,"[10]; JHH4, 3D setting, 15 days",increased
same,P-TBK1 level,[11],upregulated
same,ZFP91 level,[2],down-regulated
same,colony number,[12],reduced
same,total colony area,[12],reduced
same,sensitivity of Hep3B cells to the compound,[13],not
same,U87 tumor growth,[14],significantly inhibits
same,ZFP91 level,[3],down-regulated
same,effect of the compound on ZFP91 after knocking down of CRBN,[15],reversed
same,level of ZFP91 under protein synthesis inhibition,[15]; Focus and JHH4 cells treated with 100 ug/ml cycloheximide (CHX),decreased; also recorded: accelerates
same,proteins commonly differentially abundant after treatment,"[16]; 24 hours after treatment, both Focus and HAK-1AJ, compared with DMSO","WIBG, KAT1, Nestin, PARP4, and MVP"
same,proteins downregulated in response to treatment,[16]; proteomic screening study,"MVP, PARP4, ZFP91, and ZNF198"
same,proteins upregulated in response to treatment,[16]; proteomic screening study,"Nestin, KAT1/CCBL1, and WIBG; also recorded: Nestin, KAT1/CCBL1, WIBG, CK1-alpha, GSPT1"
same,proteins whose levels increased in response to treatment,[17],"CK1alpha, LGALS2, KAT1, GSPT1 as well as CRBN"
same,proteins whose levels reduced in response to treatment,[17],"MST1R (RON), RARP4, MVP, ZFP91, IKBKE, PDE6D"
"O=C1CCC(N2Cc3c(OCc4ccc(CN5CCOCC5)cc4)cccc3C2=O)C(=O)N1 (centres unmarked) [Compound B, 3-[4-(4-Morpholin-4-ylmethyl-benzyloxy)-1-oxo-1,3-dihydro-isoindol-2-yl]-piperidine-2,6-dione]",level of ZFP91,[1]; [20],reduces
same,sensitivity of Hep3B cells to the compound,[13],sensitive
same,ZFP91 level,[3],down-regulated
same,effect of the compound on ZFP91 after knocking down of CRBN,[15],reversed
